ChEMBL document CHEMBL1129362 (J Med Chem, 1996)

How the values were obtained:
[1] = molecular target: T1, Gastrin/cholecystokinin type B receptor (Homo sapiens, UniProt P32239); assay: Binding affinity against human Cholecystokinin type B receptor by displacement of [125I]CCK-8
T1 sequence (P32239 whole entry): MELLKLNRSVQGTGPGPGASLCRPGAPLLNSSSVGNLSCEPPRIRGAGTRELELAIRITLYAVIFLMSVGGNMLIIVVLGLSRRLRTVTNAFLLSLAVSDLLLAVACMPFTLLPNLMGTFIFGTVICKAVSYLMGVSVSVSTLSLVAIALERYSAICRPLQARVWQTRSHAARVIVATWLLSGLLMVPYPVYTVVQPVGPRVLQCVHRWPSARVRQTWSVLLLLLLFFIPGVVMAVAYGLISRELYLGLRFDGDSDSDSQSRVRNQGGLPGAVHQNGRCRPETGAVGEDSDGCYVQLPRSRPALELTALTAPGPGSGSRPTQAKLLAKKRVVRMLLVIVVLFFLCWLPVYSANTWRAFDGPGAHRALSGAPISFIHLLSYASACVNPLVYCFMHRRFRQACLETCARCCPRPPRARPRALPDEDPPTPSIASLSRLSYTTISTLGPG

[2] = molecular target: T2, Cholecystokinin receptor type A (Homo sapiens, UniProt P32238); assay: Binding affinity against human Cholecystokinin type A receptor by displacement of [125I]CCK-8
T2 sequence (P32238 whole entry): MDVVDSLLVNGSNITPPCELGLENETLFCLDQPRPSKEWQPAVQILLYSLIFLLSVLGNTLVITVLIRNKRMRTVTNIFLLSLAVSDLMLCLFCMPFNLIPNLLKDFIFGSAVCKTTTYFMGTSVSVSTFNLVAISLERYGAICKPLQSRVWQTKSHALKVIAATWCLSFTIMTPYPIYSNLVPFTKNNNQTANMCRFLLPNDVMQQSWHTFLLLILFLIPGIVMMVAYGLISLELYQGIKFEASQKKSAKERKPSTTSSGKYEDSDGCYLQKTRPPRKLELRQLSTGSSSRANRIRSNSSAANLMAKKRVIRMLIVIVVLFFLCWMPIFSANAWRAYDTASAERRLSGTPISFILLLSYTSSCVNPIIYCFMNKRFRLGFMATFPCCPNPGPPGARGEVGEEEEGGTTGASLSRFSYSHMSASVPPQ

[3] = species on record: Cavia porcellus; assay: Compound was tested for agonist activity of isolated guinea pig gallbladder by using functional assay; conditions: read-out: ED50 (the source's name)
[4] = species on record: Cavia porcellus; assay: Relative efficacy determined as maximal contraction was observed at 30 uM standardized to CCK-8; format: functional
[5] = molecular target: Cholecystokinin receptor (Homo sapiens) (UniProt P32239+P32238); assay: Selectivity ratio between IC50 values of CCK-A and CCK-B; format: protein assay
[6] = system: Mus musculus; assay: In vivo percent emptying of mouse gallbladder when administered intraperitoneally; format: functional
[7] = system: Mus musculus; assay: Effective dose against mouse gall bladder emptying when administered intraperitoneally; format: functional; conditions: ip
[8] = species on record: Cavia porcellus; assay: Relative efficacy as determined maximal contraction was observed at 30 uM standardized to CCK-8; format: functional
[9] = system: Mus musculus; assay: In vivo percent emptying of mouse gallbladder when administered orally; format: functional
[10] = system: Mus musculus; assay: Effective dose against mouse gall bladder emptying when administered orally; format: functional; conditions: po
[11] = system: Mus musculus; assay: Effective dose against mouse gallbladder emptying when administered intraperitoneally; format: functional
[12] = system: Mus musculus; assay: Effective dose against mouse gallbladder emptying when administered orally; format: functional

Row | SMILES | IC50 [1] [nM] | IC50 [2] [nM] | EC50 [3] [nM] | Max [4] [%] | Selectivity ratio [5] | also measured
1 | CC(C)N(C(=O)CN1C(=O)C(Cc2n[nH]c3ccccc23)C(=O)N(c2ccccc2)c2ccccc21)c1ccccc1 (stereo unspecified) | 178 | 87.1 | 140 | 90 | 2 | –
2 | CSCC[C@H](NC(=O)[C@H](Cc1ccc(OS(=O)(=O)O)cc1)NC(=O)[C@@H](N)CC(=O)O)C(=O)NCC(=O)N[C@@H](Cc1c[nH]c2ccccc12)C(=O)N[C@@H](CCSC)C(=O)N[C@@H](CC(=O)O)C(=O)N[C@@H](Cc1ccccc1)C(N)=O [SINCALIDE] | – | – | 2 | – | – | Empty [6]: <95%; ED50 [7]: 3e-05 µmol/kg; Max [8]: 100%
3 | CC(C)N(C(=O)CN1C(=O)C(C)(CC(=O)Nc2ccccc2)C(=O)N(c2ccccc2)c2ccccc21)c1ccccc1 (stereo unspecified) | – | – | 190 | – | – | Empty [6]: <70%; Empty [9]: <70%; ED50 [7]: 0.03 µmol/kg; ED50 [10]: 1 µmol/kg; Max [8]: 80%
4 | COc1ccc(N(C(=O)CN2C(=O)C(Cc3n[nH]c4ccccc34)C(=O)N(c3ccccc3)c3ccccc32)C(C)C)cc1 (stereo unspecified) | – | – | 109 | 100 | 50 | Activity [6]: <90%; Activity [9]: <90%; ED50 [11]: 0.2 nM·kg; ED50 [12]: 8 nM·kg
5 | CC(C)N(C(=O)CN1C(=O)C(C)(Cc2n[nH]c3ccccc23)C(=O)N(c2ccccc2)c2ccccc21)c1ccccc1 (stereo unspecified) | 2630 | 120 | 20 | 80 | 20 | –
6 | COc1ccc(N(C(=O)CN2C(=O)C(Cc3c[nH]c4ccccc34)C(=O)N(c3ccccc3)c3ccccc32)C(C)C)cc1 (stereo unspecified) | 5250 | – | 340 | 70 | 480 | –
7 | CC(C)N(C(=O)CN1C(=O)C(C)(Cc2c[nH]c3ccccc23)C(=O)N(c2ccccc2)c2ccccc21)c1ccccc1 (stereo unspecified) | – | 107 | 470 | 80 | – | –
8 | COc1ccc(N(C(=O)CN2C(=O)C(C)(Cc3c[nH]c4ccccc34)C(=O)N(c3ccccc3)c3ccccc32)C(C)C)cc1 (stereo unspecified) | 17400 | – | 530 | 60 | 2090 | –
9 | COc1ccc(N(C(=O)CN2C(=O)C(C)(Cc3n[nH]c4ccccc34)C(=O)N(c3ccccc3)c3ccccc32)C(C)C)cc1 (stereo unspecified) | 69200 | – | 320 | 80 | 5100 | –
10 | COc1ccc(N(C(=O)CN2C(=O)C(Cc3nn(Cc4ccccc4)c4ccccc34)C(=O)N(c3ccccc3)c3ccccc32)C(C)C)cc1 (stereo unspecified) | 100000 | 309 | 340 | – | – | Max [8]: 40%
11 | COc1ccc(N(C(=O)CN2C(=O)C(Cc3nn(C)c4ccccc34)C(=O)N(c3ccccc3)c3ccccc32)C(C)C)cc1 (stereo unspecified) | 2400 | 42.7 | 70 | 90 | 60 | –
